From US10500288B2, “Cytotoxic HEXIM1 peptides and uses thereof” (AGENCY FOR SCIENCE, TECHNOLOGY AND RESEARCH, priority 2015, dated 2019)
Square brackets hold non-standard residues; d marks the D form. Ends that are not written are not given here. Peptide text beside a SMILES is read from it.

How the values were obtained:
[1] = tested on: undifferentiated 3T3 mouse fibroblast cells
Procedure: (§7) 2.5×10^4 cells/ml of mouse fibroblast cells 3T3 were cultured in gelatin coated plates in Dulbecco's Modified Eagle Medium (DMEM) supplemented with 10% fetal bovine serum (FBS) and 1% penicillin/streptomycin (Gibco) to reach 100% confluent. The cells were then maintained at 100% confluency by supplementing with fresh media in a 37° C. incubator with 5% CO2 for 3 days. For induction, cells were then cultured in DMI Induction Media (which is DMEM supplemented with 10% fetal bovine serum, 1% penicillin/streptomycin, 0.1% 3-isobutyl-1-methylxanthine (sigma), 0.1% insulin (sigma) and 0.1% dexamethasone (sigma)) for 48 hours. The cells were then cultured in Insulin Induction Media (which is DMEM supplemented with 10% fetal bovine serum, 1% penicillin/streptomycin and 0.1% insulin). The insulin induction media was changed every 2 days until the cells were differentiated to adipose cells.
(§8) A D-form BR peptide with the sequence of [sequence] was tagged to a fat tissue targeting peptide of the sequence [sequence] (ATS peptide, SEQ ID NO: 39) to generate the ATS-BRD peptide of the sequence [sequence]([sequence])D (SEQ ID NO: 40). Both undifferentiated 3T3 cells and differentiated adipose cells were treated with the ATS-BRD peptide. ATS-tagged KLAD peptide was used as a positive control.

[2] = tested on: differentiated adipose cells (from 3T3)
Procedure: as §7, §8

[3] = tested on: MCF7 cells; assay: Cell viability (Cell-Titer Glo) in MCF7 breast cancer cells; assay type: cell-based, human; settings: overnight, different concentrations
Procedure: (§1) Human cell lines including HeLa, HEK293, MCF7, MDA-MB-231, CHO-K1, OPM-2, and WI-38 were obtained from American Type Culture Collection. AML2 and AML3 cells were purchased from Deutsche Sammlung von Mikroorganismen und Zellkulturen. HCT116 p53+/+ and p53−/− cells were kindly given by Dr. Bert Vogelstein. Primary human foreskin fibroblasts (HFF) were obtained from Dr. Mark Stinski. […] MDA-MB-231 and OPM-2 cells were cultured in RPMI-1640 (Gibco) containing 10% FBS and 1% penicillin/streptomycin. All cells were routinely maintained in a 37° C. incubator with 5% CO2.
(§2) Cells were plated in clear-bottomed white walled 96-well plates (Corning) and incubated overnight. Cells were treated with indicated peptides in 1% FBS-containing media for overnight or indicated timings at 37° C. Cell viability was measured with CellTiter-Glo reagent (Promega) according to the manufacturer's instructions. For cytotoxicity assay, cells were plated in black walled 96-well plates (Corning) to allow them to adhere overnight. Upon treatment with a pan-caspase inhibitor, z-VAD-Fmk ([…]) (Sigma) and subsequent treatment with LTV-tagged peptides, cytotoxicity induced was determined by CellTox cytotoxicity assay (Promega) 30 minutes after addition of peptides according to the manufacturer's instructions. Luminescence was determined using an Infinite 200 multiplate reader (Tecan).

[4] = tested on: MDA-MB-231 cells; assay: Cell viability (Cell-Titer Glo) in MDA-MB-231 breast cancer cells; assay type: cell-based, human; settings: overnight, different concentrations
Procedure: as §1, §2

[5] = tested on: MCF7 cells; assay: CellTox cytotoxicity assay with or without z-VAD-Fmk; assay type: cell-based; settings: 30 μM, thirty minutes at 37° C.
Procedure: HCT116 (p53 WT) and HCT116 (p53 KO) cells were cultured on glass slides overnight, treated with vehicle control (0.5% dimethyl sulfoxide (DMSO)) or the indicated FGF peptides (30 μM). Time-lapse DIC imaging highlights dynamic morphological changes in treated HCT116 cells by spinning disk confocal microscopy. […] In contrast, FGF-BR peptide rapidly induces drastic changes to the cell morphology with rupturing of the plasma membrane accompanied with damages to the nuclear membrane and abnormalities to the nucleolus in both cell types. (B) cytotoxicity fluorescence plots of breast cancer cells MCF7 showing the effect of pan-caspase inhibitor z-VAD-Fmk on cells treated with LTV-tagged BR peptide. […] Data representative of at least three independent experiments performed in triplicate were shown with values expressed as mean±SD.
as §2, with “Cells were treated with indicated peptides in 1% FBS-containing media for overnight or indicated timings at 37° C.” left out, “For cytotoxicity assay, cells were plated in black walled 96-well plates (Corning) to allow them to adhere overnight.” left out

[6] = tested on: human foreskin fibroblasts (HFF); assay: Cell viability (Cell-Titer Glo) in human foreskin fibroblasts; assay type: cell-based; settings: HFF normal fibroblasts; overnight, various concentrations
Procedure: as §1, §2

[7] = tested on: HCT116 (p53 KO) cells; assay: Cell viability (Cell-Titer Glo) in HCT116 (p53 KO); assay type: cell-based, human; settings: overnight, various concentrations
Procedure: as §1, §2

[8] = tested on: HCT116 (p53 WT) cells; assay: Cell viability (Cell-Titer Glo) in HCT116 (p53 WT); assay type: cell-based, human; settings: overnight, various concentrations
Procedure: as §1, §2

[9] = biological target: T1, NPM (Homo sapiens, UniProt P06748); assay: Immunofluorescence of NPM sub-cellular localization, HCT116 (p53 WT); assay type: cell-based; settings: 30 μM
T1 construct: FGF-tagged BR peptide alters the sub-cellular localization and protein level of endogenous NPM; endogenous in cells; host or cells: HCT116 (p53 WT) and HCT116 (p53 KO)
T1 sequence (P06748 whole entry): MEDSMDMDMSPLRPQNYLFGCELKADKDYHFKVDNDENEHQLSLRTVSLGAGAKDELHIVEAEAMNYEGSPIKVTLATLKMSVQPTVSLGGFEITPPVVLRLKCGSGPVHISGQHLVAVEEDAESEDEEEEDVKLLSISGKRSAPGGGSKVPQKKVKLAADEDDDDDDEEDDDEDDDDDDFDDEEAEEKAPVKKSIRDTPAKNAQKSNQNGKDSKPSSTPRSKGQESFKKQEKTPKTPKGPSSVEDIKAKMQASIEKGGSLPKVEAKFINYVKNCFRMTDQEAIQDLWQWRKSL
Procedure: (§3) (A) representative immunofluorescence images showing the sub-cellular localization of α-NPM (bar represents 10 μm). HCT116 (p53 WT) and HCT116 (p53KO) cells were cultured on glass slides overnight, treated with FGF-X13 or FGF-BR (30 μM). Cells treated with FGF-X13 peptide or vehicle, DMSO (0.5%), was used as controls. Treated cells were immunostained with an anti-NPM antibody and analyzed by laser scanning confocal microscopy (Zeiss). Nuclei were visualized by staining with 4′,6-diamidino-2-phenylindole (DAPI).
(§4) For staining with anti-NPM, cultured cells were fixed in 10% neutral buffered formalin (Sigma) for 10 min, and then in methanol for 10 min, washed in PBS and incubated with blocking buffer (PBS containing 0.5% bovine serum albumin) for 1 hour prior to incubation with a mouse anti-NPM antibody (Invitrogen) in blocking buffer for overnight at 4° C. Cells were then incubated with Alexa Fluor 488-conjugated secondary antibody (Jackson Immuno Research Laboratories) for 1 hour, washed three times with PBS and counterstained with 4′,6-diamidino-2-phenylindole (DAPI)-containing mounting solution (Vectashield). Stained cells were examined with a LSM 510 confocal microscope using a 63× objective lens (Zeiss).

[10] = biological target: T1, NPM; assay: Immunofluorescence of NPM sub-cellular localization, HCT116 (p53 KO); assay type: cell-based; settings: 30 μM
Procedure: as §3, §4

[11] = tested on: HEK293 cells; assay: Cell viability (Cell-Titer Glo) in HEK293 cells; assay type: cell-based, human; settings: HEK293 normal cells; overnight, various concentrations
Procedure: as §1, §2

[12] = tested on: HeLa cells; assay: Cell viability (Cell-Titer Glo) in HeLa cells; assay type: cell-based, human; settings: overnight, various concentrations
Procedure: as §1, §2

[13] = tested on: HCT116 (p53 KO) cells; assay: Time-lapse DIC live cell imaging, HCT116 (p53 KO); assay type: cell-based, human; settings: 30 μM, within minutes
Procedure: (§5) HCT116 (p53 WT) and HCT116 (p53 KO) cells were cultured on glass slides overnight, treated with vehicle control (0.5% dimethyl sulfoxide (DMSO)) or the indicated FGF peptides (30 μM). Time-lapse DIC imaging highlights dynamic morphological changes in treated HCT116 cells by spinning disk confocal microscopy. […] In contrast, FGF-BR peptide rapidly induces drastic changes to the cell morphology with rupturing of the plasma membrane accompanied with damages to the nuclear membrane and abnormalities to the nucleolus in both cell types. (B) cytotoxicity fluorescence plots of breast cancer cells MCF7 showing the effect of pan-caspase inhibitor z-VAD-Fmk on cells treated with LTV-tagged BR peptide. LTV is a breast cancer cell targeting peptide. MCF7 cells were incubated with or without z-VAD-Fmk (for 90 min) and then with indicated LTV-tagged peptides (30 μM) for thirty minutes at 37° C. Cells treated with LTV-X13 peptide (SEQ ID NO: 14) or vehicles, DMSO (0.5%), were used as negative controls. Treated cells were subjected to the cytotoxicity assay as described in Example 9—Materials and Methods. Data representative of at least three independent experiments performed in triplicate were shown with values expressed as mean±SD.
(§6) The mechanism of cell death induced by the HEXIM1 BR peptide was examined. […]

[14] = tested on: HCT116 (p53 WT) cells; assay: Time-lapse DIC live cell imaging, HCT116 (p53 WT); assay type: cell-based, human; settings: 30 μM, within minutes
Procedure: as §5, §6

CKGGRAKDCGG(QLGKKKHRRRPSKKKRHW)D (CKGGRAKDCGG[dQ][dL]G[dK][dK][dK][dH][dR][dR][dR][dP][dS][dK][dK][dK][dR][dH][dW]; cysteine pairing not given here) [ATS-BRD]
cytotoxic effect (cell viability) [1]: no cytotoxic effect
cytotoxic effect (cell viability) [2]: significant cytotoxic effect

LTV-BR-RRR12: breast cancer targeting peptide LTV fused to BR-RRR12 (LTVSPWYGCGQLGRRRHRRRPSRRRRHW)
effect on cell viability [3]: anti-proliferation effects
effect on cell viability [4]: anti-proliferation effects

CC(C)C[C@H](NC(=O)[C@H](CCC(N)=O)NC(=O)CNC(=O)[C@H](CS)NC(=O)CNC(=O)[C@H](Cc1ccc(O)cc1)NC(=O)[C@H](Cc1c[nH]c2ccccc12)NC(=O)[C@@H]1CCCN1C(=O)[C@H](CO)NC(=O)[C@@H](NC(=O)[C@@H](NC(=O)[C@@H](N)CC(C)C)[C@@H](C)O)C(C)C)C(=O)NCC(=O)N[C@@H](CCCCN)C(=O)N[C@@H](CCCCN)C(=O)N[C@@H](CCCCN)C(=O)N[C@@H](Cc1c[nH]cn1)C(=O)N[C@@H](CCCNC(=N)N)C(=O)N[C@@H](CCCNC(=N)N)C(=O)N[C@@H](CCCNC(=N)N)C(=O)N1CCC[C@H]1C(=O)N[C@@H](CO)C(=O)N[C@@H](CCCCN)C(=O)N[C@@H](CCCCN)C(=O)N[C@@H](CCCCN)C(=O)N[C@@H](CCCNC(=N)N)C(=O)N[C@@H](Cc1c[nH]cn1)C(=O)N[C@@H](Cc1c[nH]c2ccccc12)C(=O)O [LTV-BR] (H-LTVSPWYGCGQLGKKKHRRRPSKKKRHW-OH)
cytotoxicity fluorescence [5]: significant cytotoxic effect
cytotoxicity (cell viability) [6]: does not show such non-specific cytotoxicity

LTV-X13: LTV-tagged X13 negative control peptide (LTVSPWYGCGMPFSTGKRIMLGE) [reference compound]
effect on cell viability [3]: no effects were detected
effect on cell viability [4]: no effects were detected

QLGKKKHRRRPSKKKRHW (listed as Homo sapiens) [BR, untagged HEXIM1 basic region peptide]
effect on cell viability [3]: no effect on cell viability
effect on cell viability [4]: remained highly viable

FGF-X13: negative control peptide, FGF-tagged X13 (AAVALLPAVLLALLAPMPFSTGKRIMLGE) [reference compound]
cell death / cell viability [7]: no effects
cell death / cell viability [8]: no effects
sub-cellular localization of NPM [9]: Normal nucleolar localization of NPM
sub-cellular localization of NPM [10]: Normal nucleolar localization of NPM

CC(C)C[C@H](NC(=O)[C@H](C)NC(=O)[C@H](CC(C)C)NC(=O)[C@H](CC(C)C)NC(=O)[C@@H](NC(=O)[C@H](C)NC(=O)[C@@H]1CCCN1C(=O)[C@H](CC(C)C)NC(=O)[C@H](CC(C)C)NC(=O)[C@H](C)NC(=O)[C@@H](NC(=O)[C@H](C)NC(=O)[C@H](C)N)C(C)C)C(C)C)C(=O)N[C@@H](CC(C)C)C(=O)N[C@@H](C)C(=O)N1CCC[C@H]1C(=O)N[C@@H](CCC(N)=O)C(=O)N[C@@H](CC(C)C)C(=O)NCC(=O)N[C@@H](CCCCN)C(=O)N[C@@H](CCCCN)C(=O)N[C@@H](CCCCN)C(=O)N[C@@H](Cc1c[nH]cn1)C(=O)N[C@@H](CCCNC(=N)N)C(=O)N[C@@H](CCCNC(=N)N)C(=O)N[C@@H](CCCNC(=N)N)C(=O)N1CCC[C@H]1C(=O)N[C@@H](CO)C(=O)N[C@@H](CCCCN)C(=O)N[C@@H](CCCCN)C(=O)N[C@@H](CCCCN)C(=O)N[C@@H](CCCNC(=N)N)C(=O)N[C@@H](Cc1c[nH]cn1)C(=O)N[C@@H](Cc1c[nH]c2ccccc12)C(=O)O [FGF-BR] (H-AAVALLPAVLLALLAPQLGKKKHRRRPSKKKRHW-OH)
cytotoxicity (cell viability) [11]: Comparable cytotoxicity
cytotoxicity (cell viability) [6]: Comparable cytotoxicity
cytotoxicity (cell viability) [12]: Cytotoxicity was also observed

CC(C)C[C@H](NC(=O)[C@H](CCCCN)NC(=O)CNC(=O)[C@H](CS)NC(=O)CNC(=O)[C@H](Cc1ccc(O)cc1)NC(=O)[C@H](Cc1c[nH]c2ccccc12)NC(=O)[C@@H]1CCCN1C(=O)[C@H](CO)NC(=O)[C@@H](NC(=O)[C@@H](NC(=O)[C@@H](N)CC(C)C)[C@@H](C)O)C(C)C)C(=O)N[C@@H](C)C(=O)N[C@@H](CCCCN)C(=O)N[C@@H](CC(C)C)C(=O)N[C@@H](C)C(=O)N[C@@H](CCCCN)C(=O)N[C@@H](CCCCN)C(=O)N[C@@H](CC(C)C)C(=O)N[C@@H](C)C(=O)N[C@@H](CCCCN)C(=O)N[C@@H](CC(C)C)C(=O)N[C@@H](C)C(=O)N[C@@H](CCCCN)C(=O)O [LTV-KLA, reference compound] (H-LTVSPWYGCGKLAKLAKKLAKLAK-OH)
cytotoxicity (cell viability) [6]: non-specific killing

KLA (KLAKLAKKLAKLAK) [reference compound]
effect on cell viability [4]: non-specific killing

AAVALLPAVLLALLAP [FGF, cell membrane-translocating peptide derived from Kaposi fibroblast growth factor]
morphological changes [13]: No effects were detected
morphological changes [14]: No effects were detected

QLGRRRHRRRPSRRRRHW (QLGRRRHRRRPSKKKRHW) [BR-RRR12, BR mutant in which all six HDM2 ubiquitinating lysine residues were mutated to arginine]
effect on cell viability [3]: no effect on cell viability
effect on cell viability [4]: remained highly viable

FGF-BR-RRR12: FGF-fused BR peptide with all six HDM2 ubiquitinating lysine residues mutated to arginine (AAVALLPAVLLALLAPQLGRRRHRRRPSRRRRHW)
cell death / cell viability [7]: stronger cell toxicity when compared to the wild-type FGF-BR peptide
cell death / cell viability [8]: stronger cell toxicity when compared to the wild-type FGF-BR peptide

FGF-BR-ILAA: FGF-fused BR peptide with KHRR motif mutated to ILAA (AAVALLPAVLLALLAPQLGKKILAARPSKKKRHW)
cell death / cell viability [7]: still maintained its killing ability
cell death / cell viability [8]: still maintained its killing ability

X13: untagged negative control peptide (MPFSTGKRIMLGE) [reference compound]
effect on cell viability [3]: no effect on cell viability
effect on cell viability [4]: no effect on cell viability
